Reference: patent US20060069132A1, “Azolecarboxamide herbicides” (priority 2004, published 2006)

Tests used:
pigweed = experiment: Test B pre-/postemergence herbicide test; format: in vivo, Amaranthus retroflexus; settings: for Plant response rating, Pigweed: preemergence; for Pigweed plant response rating: postemergence, visual rating, scale 0 (no effect) to 100 (complete control)
Method in brief: (§1)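 Herbicidal effect was judged by eye on a 0–100 scale after plants stood 13 to 15 days in the greenhouse following pre- or postemergence treatment with surfactant-containing formulations.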

wheat = experiment: Test B postemergence herbicide test; format: in vivo, Triticum aestivum; set-up: key to Wheat plant response rating: 0 = no effect, 100 = complete control; settings: postemergence, 500 g ai/ha; visual rating, scale 0 (no effect) to 100 (complete control)
Method in brief: (§2)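 Postemergence plants were sprayed with formulated test chemicals at 2 to 18 cm height (1- to 4-leaf stage); paddy species were grown to the 2-leaf stage. After 13 to 15 days in a greenhouse, injury was rated visually against untreated controls on a 0–100 scale (0 = no effect, 100 = complete control).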

large crabgrass = experiment: Test B pre-/postemergence herbicide test; format: in vivo, Digitaria sanguinalis; settings: for Plant response rating, Crabgrass, Large: preemergence; for Crabgrass, Large plant response rating: postemergence, visual rating, scale 0 (no effect) to 100 (complete control)
Method in brief: as §1

wild oat = experiment: Test B postemergence herbicide test; format: in vivo, Avena fatua; settings: postemergence, visual rating, scale 0 (no effect) to 100 (complete control)
Method in brief: as §2

blackgrass = experiment: Test B postemergence herbicide test; format: in vivo, Alopecurus myosuroides; settings: postemergence, visual rating, scale 0 (no effect) to 100 (complete control)
Method in brief: (§3)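 Each value is a visual 0–100 response rating taken against controls 13 to 15 days after treatment in the greenhouse. Plants received formulated chemical postemergence at the 1- to 4-leaf stage or, in flooded paddy, at the 2-leaf stage.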

[1] = tested on: small flower umbrella sedge; experiment: Test B flooded paddy test; format: in vivo, Cyperus difformis; settings: 1000 g ai/ha, visual rating, scale 0 to 100 (0 no effect, 100 complete control), 13 to 15 days
Method in brief: as §3

barnyardgrass = experiment: Test B pre-/postemergence herbicide test; format: in vivo, Echinochloa crus-galli; settings: for Plant response rating, Barnyardgrass: preemergence; for Barnyardgrass plant response rating: postemergence, visual rating, scale 0 (no effect) to 100 (complete control)
Method in brief: (§4)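 Evaluation is visual, comparing treated with control plants on a scale where 0 means no effect and 100 means full control. Treatments were preemergence, or postemergence on seedlings 2–18 cm tall, and held 13–15 days in the greenhouse.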

giant foxtail = experiment: Test B pre-/postemergence herbicide test; format: in vivo, Setaria faberi; settings: for Plant response rating, Foxtail, Giant: preemergence; for Foxtail, Giant plant response rating: postemergence, visual rating, scale 0 (no effect) to 100 (complete control)
Method in brief: as §1

morningglory = experiment: Test B pre-/postemergence herbicide test; format: in vivo, Ipomoea coccinea; settings: for Plant response rating, Morningglory: preemergence; for Morningglory plant response rating: postemergence, visual rating, scale 0 (no effect) to 100 (complete control)
Method in brief: as §4

lambsquarters = experiment: Test B pre-/postemergence herbicide test; format: in vivo, Chenopodium album; settings: for Plant response rating, Lambsquarters: preemergence; for Lambsquarters plant response rating: postemergence, visual rating, scale 0 (no effect) to 100 (complete control)
Method in brief: as §1

corn = experiment: Test B pre-/postemergence herbicide test; format: in vivo, Zea mays; settings: for Plant response rating, Corn: preemergence; for Corn plant response rating: postemergence, visual rating, scale 0 (no effect) to 100 (complete control)
Method in brief: as §1

Surinam grass = experiment: Test B pre-/postemergence herbicide test; format: in vivo, Urochloa decumbens; settings: for Plant response rating, Surinam Grass: preemergence; for Surinam Grass plant response rating: postemergence, visual rating, scale 0 (no effect) to 100 (complete control)
Method in brief: as §1

cocklebur = experiment: Test B pre-/postemergence herbicide test; format: in vivo, Xanthium strumarium; settings: for Plant response rating, Cocklebur: preemergence; for Cocklebur plant response rating: postemergence, visual rating, scale 0 (no effect) to 100 (complete control)
Method in brief: as §4

velvetleaf = experiment: Test B pre-/postemergence herbicide test; format: in vivo, Abutilon theophrasti; settings: for Plant response rating, Velvetleaf: preemergence; for Velvetleaf plant response rating: postemergence, visual rating, scale 0 (no effect) to 100 (complete control)
Method in brief: as §1

[2] = 500 g ai/ha, visual rating 0-100, 0 no effect, 100 complete control
[3] = 125 g ai/ha, 0 to 100 scale, 0 is no effect, 100 is complete control

`CCN(CC)C(=O)c1ccnc(NC(=O)c2cc(C(C)(C)C)nn2CC)c1` [Compound 153] was tested, and the “Plant response rating, Pigweed” value (pigweed; [2]) was 100, the “Pigweed plant response rating” value (pigweed; 125 g ai/ha) was 20 and the “Pigweed plant response rating” value (pigweed; 500 g ai/ha) was 70. For the same molecule, the “Plant response rating, Pigweed” value (pigweed; [3]) was 100, the “Wheat plant response rating” value (wheat) was 10 and the “Plant response rating, Crabgrass, Large” value (large crabgrass; [2]) was 80. The “Crabgrass, Large plant response rating” value (large crabgrass; 125 g ai/ha) was 10, the “Crabgrass, Large plant response rating” value (large crabgrass; 500 g ai/ha) was 20 and the “Plant response rating, Crabgrass, Large” value (large crabgrass; [3]) was 50. For the same molecule, the “Oat, Wild plant response rating” value (wild oat; 125 g ai/ha) was 20, the “Oat, Wild plant response rating” value (wild oat; 500 g ai/ha) was 50 and the “Blackgrass plant response rating” value (blackgrass; 125 g ai/ha) was 10. The “Blackgrass plant response rating” value (blackgrass; 500 g ai/ha) was 10, the “Sedge, Umbrella plant response rating” value [1] was 70 and the “Plant response rating, Barnyardgrass” value (barnyardgrass; [2]) was 90. The “Barnyardgrass plant response rating” value (barnyardgrass; 125 g ai/ha) was 30, the “Barnyardgrass plant response rating” value (barnyardgrass; 500 g ai/ha) was 30 and the “Plant response rating, Barnyardgrass” value (barnyardgrass; [3]) was 60. For the same molecule, the “Plant response rating, Foxtail, Giant” value (giant foxtail; [2]) was 50, the “Foxtail, Giant plant response rating” value (giant foxtail; 125 g ai/ha) was 10 and the “Foxtail, Giant plant response rating” value (giant foxtail; 500 g ai/ha) was 20. For the same molecule, the “Plant response rating, Foxtail, Giant” value (giant foxtail; [3]) was 0, the “Plant response rating, Morningglory” value (morningglory; [2]) was 10 and the “Morningglory plant response rating” value (morningglory; 125 g ai/ha) was 10. For the same molecule, the “Morningglory plant response rating” value (morningglory; 500 g ai/ha) was 70, the “Plant response rating, Morningglory” value (morningglory; [3]) was 0 and the “Plant response rating, Lambsquarters” value (lambsquarters; [2]) was 100. For the same molecule, the “Lambsquarters plant response rating” value (lambsquarters; 125 g ai/ha) was 80, the “Lambsquarters plant response rating” value (lambsquarters; 500 g ai/ha) was 80 and the “Plant response rating, Lambsquarters” value (lambsquarters; [3]) was 100. The “Plant response rating, Corn” value (corn; [2]) was 20, the “Corn plant response rating” value (corn; 125 g ai/ha) was 10 and the “Corn plant response rating” value (corn; 500 g ai/ha) was 20. The “Plant response rating, Corn” value (corn; [3]) was 0, the “Plant response rating, Surinam Grass” value (Surinam grass; [2]) was 70 and the “Surinam Grass plant response rating” value (Surinam grass; 125 g ai/ha) was 30. The “Surinam Grass plant response rating” value (Surinam grass; 500 g ai/ha) was 30, the “Plant response rating, Surinam Grass” value (Surinam grass; [3]) was 10 and the “Plant response rating, Cocklebur” value (cocklebur; [2]) was 0. For the same molecule, the “Cocklebur plant response rating” value (cocklebur; 125 g ai/ha) was 50, the “Cocklebur plant response rating” value (cocklebur; 500 g ai/ha) was 100 and the “Plant response rating, Cocklebur” value (cocklebur; [3]) was 0. The “Plant response rating, Velvetleaf” value (velvetleaf; [2]) was 100, the “Velvetleaf plant response rating” value (velvetleaf; 125 g ai/ha) was 50 and the “Velvetleaf plant response rating” value (velvetleaf; 500 g ai/ha) was 60. The “Plant response rating, Velvetleaf” value (velvetleaf; [3]) was 40.

For `CCn1nc(C(C)(C)C)cc1C(=O)Nc1cc(C(=O)NCC2CC2)ccn1` [Compound 155], the “Plant response rating, Pigweed” value (pigweed; [2]) was 100, the “Pigweed plant response rating” value (pigweed; 125 g ai/ha) was 60 and the “Pigweed plant response rating” value (pigweed; 500 g ai/ha) was 100. The “Plant response rating, Pigweed” value (pigweed; [3]) was 100, the “Wheat plant response rating” value (wheat) was 20 and the “Plant response rating, Crabgrass, Large” value (large crabgrass; [2]) was 100. The “Crabgrass, Large plant response rating” value (large crabgrass; 125 g ai/ha) was 20, the “Crabgrass, Large plant response rating” value (large crabgrass; 500 g ai/ha) was 40 and the “Plant response rating, Crabgrass, Large” value (large crabgrass; [3]) was 60. The “Oat, Wild plant response rating” value (wild oat; 125 g ai/ha) was 40, the “Oat, Wild plant response rating” value (wild oat; 500 g ai/ha) was 50 and the “Blackgrass plant response rating” value (blackgrass; 125 g ai/ha) was 40. For the same molecule, the “Blackgrass plant response rating” value (blackgrass; 500 g ai/ha) was 50, the “Sedge, Umbrella plant response rating” value [1] was 90 and the “Plant response rating, Barnyardgrass” value (barnyardgrass; [2]) was 90. The “Barnyardgrass plant response rating” value (barnyardgrass; 125 g ai/ha) was 10, the “Barnyardgrass plant response rating” value (barnyardgrass; 500 g ai/ha) was 20 and the “Plant response rating, Barnyardgrass” value (barnyardgrass; [3]) was 60. The “Plant response rating, Foxtail, Giant” value (giant foxtail; [2]) was 90, the “Foxtail, Giant plant response rating” value (giant foxtail; 125 g ai/ha) was 20 and the “Foxtail, Giant plant response rating” value (giant foxtail; 500 g ai/ha) was 30. For the same molecule, the “Plant response rating, Foxtail, Giant” value (giant foxtail; [3]) was 20, the “Plant response rating, Morningglory” value (morningglory; [2]) was 40 and the “Morningglory plant response rating” value (morningglory; 125 g ai/ha) was 30. For the same molecule, the “Morningglory plant response rating” value (morningglory; 500 g ai/ha) was 60, the “Plant response rating, Morningglory” value (morningglory; [3]) was 20 and the “Plant response rating, Lambsquarters” value (lambsquarters; [2]) was 100. For the same molecule, the “Lambsquarters plant response rating” value (lambsquarters; 125 g ai/ha) was 70, the “Lambsquarters plant response rating” value (lambsquarters; 500 g ai/ha) was 90 and the “Plant response rating, Lambsquarters” value (lambsquarters; [3]) was 100. The “Plant response rating, Corn” value (corn; [2]) was 30, the “Corn plant response rating” value (corn; 125 g ai/ha) was 10 and the “Corn plant response rating” value (corn; 500 g ai/ha) was 20. For the same molecule, the “Plant response rating, Corn” value (corn; [3]) was 0, the “Plant response rating, Surinam Grass” value (Surinam grass; [2]) was 50 and the “Surinam Grass plant response rating” value (Surinam grass; 125 g ai/ha) was 20. The “Surinam Grass plant response rating” value (Surinam grass; 500 g ai/ha) was 30, the “Plant response rating, Surinam Grass” value (Surinam grass; [3]) was 10 and the “Plant response rating, Cocklebur” value (cocklebur; [2]) was 30. For the same molecule, the “Cocklebur plant response rating” value (cocklebur; 125 g ai/ha) was 60, the “Cocklebur plant response rating” value (cocklebur; 500 g ai/ha) was 80 and the “Plant response rating, Cocklebur” value (cocklebur; [3]) was 0. The “Plant response rating, Velvetleaf” value (velvetleaf; [2]) was 70, the “Velvetleaf plant response rating” value (velvetleaf; 125 g ai/ha) was 20 and the “Velvetleaf plant response rating” value (velvetleaf; 500 g ai/ha) was 70. For the same molecule, the “Plant response rating, Velvetleaf” value (velvetleaf; [3]) was 20.
